Results on 30 molecules are retold here after patent US7919487B2, “Heteroaryl compounds” (Synta Pharmaceuticals Corporation, priority 2004, dated 2011).

The subject of the experiment is IL-12 production in human PBMC or THP-1 cells. Description: Human in vitro assay: inhibition of IL-12 production in human PBMC or THP-1 cells (ELISA). Type of experiment: cell-based. The following applies: THP-1, human PBMC or THP-1 cells, IFNγ plus LPS or SAC stimulation, representative in vitro data. An excerpt: The biological activities of the compounds of the invention can be evaluated by a number of cell-based assays. One of such assays can be conducted using cells from human peripheral blood mononuclear cells (PBMC) or human monocytic cell line (THP-1). The cells are stimulated with a combination of human interferon-γ (IFNγ) and lipopolysaccharide or a combination of IFNγ and Staphylococcus aureus Cowan I in the presence of a test compound. The level of inhibition of IL-12 production can be measured by determining the amount of p70 by using a sandwich ELISA assay with anti-human IL-12 antibodies. IC50 of the test compound can then be determined. Specifically, PBMC or THP-1 cells are incubated with the test compound. Cell viability was assessed using the bioreduction of MTS [3-(4,5-dimethylthiazol-2-yl)-5-(3-carboxymethoxyphenyl)-2-(4-sulfophenyl)-2H-tetrazolium] (Promega, Madison, Wis.).
Reagents. Staphylococcus aureus Cowan I (SAC) was obtained from Calbiochem (La Jolla, Calif.), and lipopolysaccharide (LPS, Serratia marscencens) was obtained from Sigma (St Louis, Mo.). Human and mouse recombinant IFNγ were purchased from Boehringer Mannheim (Mannheim, Germany) and Pharmingen (San Diego, Calif.), respectively.
Human In Vitro Assay. Human PBMC were isolated by centrifugation using Ficoll-Paque (Pharmacia Biotech, Uppsala, Sweden) and prepared in RPMI medium supplemented with 10% fetal calf serum (FCS), 100 U/mL penicillin, and 100 μg/mL streptomycin. PBMC were plated in wells of a 96-well plate at a concentration of 5×10^5 cells/well, and primed by adding IFNγ (30 U/mL) for 22 h and stimulated by adding LPS (1 μg/mL), or by adding IFNγ (100 U/mL) and then stimulated by adding SAC (0.01%). A test pyrimidine compound was dissolved in DMSO, and added to wells of the 96-well plate. The final DMSO concentration was adjusted to 0.25% in all cultures, including the compound-free control. Human THP-1 cells were plated in wells, primed by adding IFNγ (100 U/mL) for 22 h and stimulated by adding SAC (0.025%) in the presence of different concentrations of the pyrimidine compound. Cell-free supernatants were taken 18 h later for measurement of cytokines. Cell viability was assessed using the bioreduction of MTS. Cell survival was estimated by determining the ratio of the absorbance in compound-treated groups versus compound-free control.
The supernatant was assayed for the amount of IL-12p40, IL-12p70, or IL-10 by using a sandwich ELISA with anti-human antibodies, i.e., a Human IL-12 p40 ELISA kit from R&D Systems (Berkeley, Calif.), and a Human IL-12 p70 or IL-10 ELISA kit from Endogen (Cambridge, Mass.). Assays were based on the manufacturer's instructions.
The biological activities of compounds were tested on human PBMC or THP-1 cells.
(In general: In an ELISA, binding on a coated surface is turned into a signal by an enzyme label.)

One may read the IC50 as the concentration that gives 50% inhibition. Regarding `Cc1cccc(/C=N/Nc2nc(N)nc(-c3cccnc3)n2)c1` [Compound 143, (E)-4-(2-(3-methylbenzylidene)hydrazinyl)-6-(pyridin-3-yl)-1,3,5-triazin-2-amine], the IC50 was above 1000 nM.

As to `Cc1[nH]c2ccc(NC(=O)c3cccc(-c4cncnc4)n3)cc2c1C` [Compound 104, 6-Pyrimidin-5-yl-pyridine-2-carboxylic acid(2,3-dimethyl-1H-indol-5-yl)-amide], the IC50 was above 1000 nM.

As to `Cc1[nH]c2ccc(NC(=O)c3cc(OCCN4CCOCC4)cc(-c4ccncc4)n3)cc2c1C` [Compound 101, 4-(2-Morpholin-4-yl-ethoxy)-[2,4′]bipyridinyl-6-carboxylic acid (2,3-dimethyl-1H-indol-5-yl)-amide], the IC50 stood at 20 nM.

Take `COCCN(C)c1cc(N/N=C/c2cccc(C)c2)nc(OCCN2CCOCC2)n1` [Compound 31, (2-Methoxy-ethyl)-methyl-[6-[N′-(3-methyl-benzylidene)-hydrazino]-2-(2-morpholin-4-yl-ethoxy)-pyrimidin-4-yl]-amine]: the IC50 was found to be 674 nM.

On to `Cc1[nH]c2ccc(NC(=O)c3cccc(-c4ccsc4)n3)cc2c1C` [Compound 105, 6-Thiophen-3-yl-pyridine-2-carboxylic acid(2,3-dimethyl-1H-indol-5-yl)-amide], for which the IC50 is above 1000 nM.

Regarding `Cc1[nH]c2ccc(NC(=O)c3cccc(-c4cn[nH]c4)n3)cc2c1C` [Compound 108, 6-(1H-Pyrazol-4-yl)-pyridine-2-carboxylic acid(2,3-dimethyl-1H-indol-5-yl)-amide], the IC50 was 218 nM.

On to `O=C(Nc1ccc2c(c1)CCC2)Nc1cccc(-c2ccncc2)n1` [Compound 100, 1-[2,4′]Bipyridinyl-6-yl-3-indan-5-yl-urea], for which the IC50 worked out at 148 nM.

Consider `Cc1[nH]c2ccc(NC(=O)c3cccc(-c4ccnc(F)c4)n3)cc2c1C` [Compound 107, 2′-Fluoro-[2,4′]bipyridinyl-6-carboxylic acid(2,3-dimethyl-1H-indol-5-yl)-amide], for which the concentration for half-maximal inhibition (IC50) worked out at 193 nM.

Take `C(=N\Nc1nc(OCCc2ccccn2)nc(N2CCC3(CC2)OCCO3)n1)/c1c[nH]c2ccccc12` [Compound 8, N-[4-(1,4-Dioxa-8-aza-spiro[4.5]dec-8-yl)-6-(2-pyridin-2-yl-ethoxy)-[1,3,5]triazin-2-yl]-N′-(1H-indol-3-ylmethylene)-hydrazine]: the IC50 was 500 nM.

As to `COc1ccc(CCOc2nc(N/N=C/c3cccc(C)c3)cc(N(C)C)n2)cc1OC` [Compound 15, {2-[2-(3,4-Dimethoxy-phenyl)-ethoxy]-6-[N′-(3-methyl-benzylidene)-hydrazino]-pyrimidin-4-yl}-dimethyl-amine], the IC50 is 20 to 56 nM.

As for `Cc1cccc(/C=N/Nc2nc(CCCOC(=O)Nc3ccc(C(F)(F)F)cc3)cc(N(C)C)n2)c1` [Compound 29, (4-Trifluoromethyl-phenyl)-carbamic acid 3-{6-dimethylamino-2-[N′-(3-methyl-benzylidene)-hydrazino]-pyrimidin-4-yl}-propyl ester], the IC50 came out at 10000 nM.

For the molecule `CSc1nc(NC(=O)Nc2cccc(C)c2)nc(-c2cccnc2)n1` [Compound 145, 1-(4-(methylthio)-6-(pyridin-3-yl)-1,3,5-triazin-2-yl)-3-m-tolylurea], the IC50 was above 1000 nM.

With `COc1ccc(CCOc2nc(N/N=C/c3cccc(C)c3)nc(-n3ccnc3)n2)cc1OC` [Compound 21, N-{4-[2-(3,4-Dimethoxy-phenyl)-ethoxy]-6-imidazol-1-yl-[1,3,5]triazin-2yl}-N′-(3-methyl-benzylidene)-hydrazine], the IC50 turned out to be 103 nM.

For the molecule `Cc1[nH]c2ccc(NC(=O)c3cccc(-c4cccnc4)n3)cc2c1C` [Compound 106, [2,3′]Bipyridinyl-6-carboxylic acid(2,3-dimethyl-1H-indol-5-yl)-amide], the IC50 is above 1000 nM.

Turning to `Cc1cccc(/C=N/Nc2cc(N)nc(N/N=C/c3cccc(C)c3)n2)c1` [Compound 19, 2,6-Bis-[N′-(3-methyl-benzylidene)-hydrazino]-pyrimidin-4-ylamine], the IC50 came to 119 nM.

`COc1nc(N/N=C/c2c[nH]c3ccc(F)cc23)nc(N(C(C)C)C(C)C)n1` [Compound 4, {4-[N′-(5-Fluoro-1H-indol-3-ylmethylene)-hydrazino]-6-methoxy-[1,3,5]triazin-2-yl}-diisopropyl-amine]: the IC50 worked out at 13000 nM.

For the molecule `Cc1cccc(/C=N/Nc2cc(OCCN3CCOCC3)nc(-c3ccncc3)n2)c1` [Compound 141, (E)-4-(2-(6-(2-(3-methylbenzylidene)hydrazinyl)-2-(pyridin-4-yl)pyrimidin-4-yloxy)ethyl)morpholine], the IC50 worked out at 94.6 nM.

As to `COc1nc(N/N=C/c2c[nH]c3c(C)cccc23)nc(N(C(C)C)C(C)C)n1` [Compound 3, Diisopropyl-{4-methoxy-6-[N′-(7-methyl-1H-indol-3-ylmethylene)-hydrazino]-[1,3,5]triazin-2-yl}-amine], the IC50 amounted to 7800 nM.

Turning to `Cc1[nH]c2ccc(NC(=O)c3cccc(-c4ccncc4F)n3)cc2c1C` [Compound 103, 3′-Fluoro-[2,4′]bipyridinyl-6-carboxylic acid(2,3-dimethyl-1H-indol-5-yl)-amide], the IC50 came to 158 nM.

As to `O=C1CCN(c2nc(N/N=C/c3c[nH]c4ccccc34)nc(OCCc3ccccn3)n2)CC1` [Compound 11, 1-[4-[N′-(1H-Indol-3-ylmethylene)-hydrazino]-6-(2-pyridin-2-yl-ethoxy)-[1,3,5]triazin-2-yl]-piperidin-4-one], the IC50 came out at 500 nM.

With `COCc1cc(N/N=C/c2cccc(C)c2)nc(-c2ccncc2)n1` [Compound 142, (E)-4-(methoxymethyl)-6-(2-(3-methylbenzylidene)hydrazinyl)-2-(pyridin-4-yl)pyrimidine], the IC50 worked out at 80 nM.

`Cc1[nH]c2ccc(NC(=O)c3cc(NCCN4CCOCC4)nc(N4CCSC4)n3)cc2c1C` [Compound 148, N-(2,3-dimethyl-1H-indol-5-yl)-6-(2-morpholinoethylamino)-2-(thiazolidin-3-yl)pyrimidine-4-carboxamide]: the IC50 stood at 55 nM.

Consider `CSc1nc(NC(=O)Nc2cccc(C)c2)nc(-c2ccncc2)n1` [Compound 144, 1-(4-(methylthio)-6-(pyridin-4-yl)-1,3,5-triazin-2-yl)-3-m-tolylurea], for which the IC50 was determined as 128 nM.

Turning to `COc1nc(N/N=C/c2c[nH]c3ccccc23)nc(N(C(C)C)C(C)C)n1` [Compound 2, {4-[N′-(1H-Indol-3-ylmethylene)-hydrazino]-6-methoxy-[1,3,5]triazin-2-yl}-diisopropyl-amine], the IC50 is 13600 nM.

Take `COc1nc(N/N=C/c2cn(C)c3ccccc23)nc(N(C(C)C)C(C)C)n1` [Compound 1, Diisopropyl-{4-methoxy-6-[N′-(1-methyl-1H-indol-3-ylmethylene)-hydrazino]-[1,3,5]triazin-2-yl}-amine]: the IC50 came out at 13000 nM.

As for `COc1ccc(CCOc2nc(N/N=C/c3c[nH]c4ccccc34)nc(N3CCSC3)n2)cc1OC` [Compound 7, N-{4-[2-(3,4-Dimethoxy-phenyl)-ethoxy]-6-thiazolidin-3-yl-[1,3,5]triazin-2-yl}-N′-(1H-indol-3-ylmethylene)-hydrazine], the IC50 was 20 to 53 nM.

On to `COc1ccc(CCOc2cc(N(C)C)nc(N/N=C/c3cccc(C)c3)n2)cc1OC` [Compound 16, {6-[2-(3,4-Dimethoxy-phenyl)-ethoxy]-2-[N′-(3-methyl-benzylidene)-hydrazino]-pyrimidin-4-yl}-dimethyl-amine], for which the IC50 amounted to 1060 nM.

Take `CCN(CC)c1cc(N/N=C/c2cccc(C)c2)nc(OCCN2CCOCC2)n1` [Compound 30, Diethyl-[6-[N′-(3-methyl-benzylidene)-hydrazino]-2-(2-morpholin-4-yl-ethoxy)-pyrimidin-4-yl]-amine]: the IC50 turned out to be 875 nM.

In the case of `COCCN(C)c1cc(C(=O)Nc2ccc3[nH]c(C)c(C)c3c2)nc(-c2ccncc2)c1` [Compound 102, 4-[(2-Methoxy-ethyl)-methyl-amino]-[2,4′]bipyridinyl-6-carboxylic acid(2,3-dimethyl-1H-indol-5-yl)-amide], the IC50 turned out to be 2.6 nM.

As to `COc1ccc(CCNc2nccc(N/N=C/c3cccc(C)c3)n2)cc1OC` [Compound 17, [2-(3,4-Dimethoxy-phenyl)-ethyl]-{4-[N′-(3-methyl-benzylidene)-hydrazino]-pyrimidin-2-yl}-amine], the IC50 was found to be 636 nM.
